Data reported in publication PMC10374545, “A small molecule inhibitor of PTP1B and PTPN2 enhances T cell anti-tumor immunity” (Nature Communications, 2023).

Columns and labels:
Assay type in all cases: biochemical
PTPα = biological target: T1, PTPα (Homo sapiens, UniProt P18433); experiment: PTP selectivity, DiFMUP assay; settings: DiFMUP at Km
T1 construct: PTPα, residues 173-793; made in house; host or cells: E. coli BL21(DE3)
Protocol: (§1) E. coli BL21(DE3) (Novagen) was used as an expression host and the induction of protein expression was carried out in LB media with 1 mM IPTG at 18 °C overnight. Cell pellets were stored at −80 °C for subsequent protein purification.
(§2) Protein purification of PTPs for enzymatic assays was conducted at 4 °C. Frozen cell pellets were lysed by sonication in 40 ml cold lysis buffer (50 mM Tris-HCl, pH 8.0, 150 mM NaCl, 5 mM imidazole, and 1 mM PMSF) per litre cell pellet. Cell lysates were clarified by centrifugation using a Beckman JA-18 rotor for 15 min at 5308 x g. The supernatant was incubated with HisPur Ni-NTA resin (Thermo Scientific) for 2 h and then packed onto a column and washed with 50 resin volume of buffer A (50 mM Tris-HCl, pH 8.0, 500 mM NaCl, 5 mM imidazole). The His-tagged proteins were eluted with Buffer B (50 mM Tris-HCl, pH=8.0, 500 mM NaCl, 300 mM imidazole,). Pooled His-protein-containing fractions were concentrated, loaded onto a HiLoad 26/600 Superdex 75 column (GE Healthcare Biosciences) and eluted with storage buffer (50 mM Tris-HCl, pH 8.0, 150 mM NaCl, 1 mM DTT, 10% glycerol). […] The protein was aliquoted and stored at −80 °C.
(§3) The PTP kinetic assay was modified from previous reported protocols[73],[74]. PTP activity was assayed using 6,8-Difluoro-4-Methylumbelliferyl Phosphate (DiFMUP, Invitrogen, cat# D6567,) as a substrate in 3,3-Dimethylglutaric acid (DMG) buffer (50 mM DMG, pH 7.0, 1 mM EDTA, 18 mM NaCl, 0.01% Triton X-100) at 25 °C. To determine the IC50 values, the assays were performed in 96-well plates (Corning Costar 3915). […] The final reaction volume is 200 µl. The reaction was allowed to proceed for 10 min and then quenched by the addition of 40 µl of a 160 µM solution of bpV(Phen) (Sigma-Aldrich, cat# SML0889). The fluorescence signal was measured using a CLARIOstar Plus Microplate Spectrophotometer (BMG Labtech) using excitation and emission wavelengths of 340 nm and 450 nm, respectively. Data were fitted using Prism GraphPad 9.2.0.
(§4) To determine the mode of inhibition, the reactions were initiated by the addition of enzyme (final concentration for PTP1B and PTPN2 was 0.05 nM) to the reaction mixtures (0.2 ml) containing various concentrations of DiFMUP with different concentrations of the inhibitor. The reaction was allowed to proceed for 10 min and then quenched by the addition of 40 µl of a 160 µM solution of bpV(Phen) (Sigma-Aldrich, cat# SML0889). The fluorescence signal was measured using a CLARIOstar Plus Microplate Spectrophotometer (BMG Labtech) using excitation and emission wavelength of 340 nm and 450 nm, respectively. Data were fitted using Prism GraphPad 9.2.0. For selectivity studies, the inhibition assay for other PTPs were performed under the same conditions as used for PTP1B and PTPN2 except with different DiFMUP concentration corresponding to the Km of the PTP studied.

FAP-1 = biological target: T2, FAP-1 (Homo sapiens, UniProt Q12923); experiment: PTP selectivity, DiFMUP assay; settings: DiFMUP at Km
T2 construct: FAP1, residues 2124-2485; made in house; host or cells: E. coli BL21(DE3)
Protocol: as §1, §2, §3, §4

SHP-2 = biological target: T3, SHP-2 (Homo sapiens, UniProt Q06124); experiment: PTP selectivity, DiFMUP assay; settings: DiFMUP at Km
T3 construct: SHP-2, residues 224-528; made in house; host or cells: E. coli BL21(DE3)
Protocol: as §1, §2, §3, §4

HePTP = biological target: T4, HePTP (Homo sapiens, UniProt P35236); experiment: PTP selectivity, DiFMUP assay; settings: DiFMUP at Km
T4 construct: HePTP, residues 22-360; made in house; host or cells: E. coli BL21(DE3)
Protocol: as §1, §2, §3, §4

SHP-1 = biological target: T5, SHP-1 (Homo sapiens, UniProt P29350); experiment: PTP selectivity, DiFMUP assay; settings: DiFMUP at Km
T5 construct: SHP-1, residues 245-543; made in house; host or cells: E. coli BL21(DE3)
Protocol: as §1, §2, §3, §4

LMPTP = biological target: T6, LMPTP (Homo sapiens, UniProt P24666); experiment: PTP selectivity, DiFMUP assay; settings: DiFMUP at Km
T6 construct: LMWPTP, residues 1-158; made in house; host or cells: E. coli BL21(DE3)
Protocol: as §1, §2, §3, §4

MKP5 = biological target: T7, MKP5 (Homo sapiens, UniProt Q9Y6W6); experiment: PTP selectivity, DiFMUP assay; settings: DiFMUP at Km
T7 construct: MKP5, residues 320-647; made in house; host or cells: E. coli BL21(DE3)
Protocol: as §1, §2, §3, §4

CD45 = biological target: T8, CD45 (Homo sapiens, UniProt P08575); experiment: PTP selectivity, DiFMUP assay; settings: DiFMUP at Km
T8 construct: CD45, residues 620-1236; made in house; host or cells: E. coli BL21(DE3)
Protocol: as §1, §2, §3, §4

VHZ = biological target: T9, VHZ (Homo sapiens, UniProt Q9BVJ7); experiment: PTP selectivity, DiFMUP assay; settings: DiFMUP at Km
T9 construct: VHZ, residues 1-150; made in house; host or cells: E. coli BL21(DE3)
Protocol: as §1, §2, §3, §4

PTP-PEST = biological target: T10, PTP-PEST (Homo sapiens, UniProt Q05209); experiment: PTP selectivity, DiFMUP assay; settings: DiFMUP at Km
T10 construct: PTP-PEST, residues 5-304; made in house; host or cells: E. coli BL21(DE3)
Protocol: as §1, §2, §3, §4

PTPN2 = biological target: T11, PTPN2 (Homo sapiens, UniProt P17706); experiment: Jump-dilution assay; settings: 30 min preincubation, 50-fold dilution into 100 µM DiFMUP
T11 construct: PTPN2, residues 1-387; made in house; host or cells: E. coli BL21(DE3)
T11 sequence (P17706 1-387 isoform P17706-2): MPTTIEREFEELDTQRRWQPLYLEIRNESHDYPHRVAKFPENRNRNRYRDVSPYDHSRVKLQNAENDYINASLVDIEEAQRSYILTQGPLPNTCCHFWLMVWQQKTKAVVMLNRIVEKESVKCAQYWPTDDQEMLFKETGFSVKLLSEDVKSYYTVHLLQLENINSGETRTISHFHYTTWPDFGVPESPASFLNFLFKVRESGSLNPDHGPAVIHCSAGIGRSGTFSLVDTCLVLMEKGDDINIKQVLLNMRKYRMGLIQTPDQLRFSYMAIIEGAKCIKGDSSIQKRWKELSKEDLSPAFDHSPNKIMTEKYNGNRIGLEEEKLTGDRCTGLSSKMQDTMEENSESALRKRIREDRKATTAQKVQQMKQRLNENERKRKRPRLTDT
Protocol: The reaction was allowed to proceed for 10 min under room temperature and was quenched by addition of a 160 µM solution of bpV(Phen). The fluorescence signal was measured using a CLARIOstar Plus Microplate Spectrophotometer (BMG Labtech) using excitation and emission wavelengths of 340 nm and 450 nm, respectively. Data were fitted using Prism GraphPad 9.2.0.

T3 sequence (Q06124 224-528): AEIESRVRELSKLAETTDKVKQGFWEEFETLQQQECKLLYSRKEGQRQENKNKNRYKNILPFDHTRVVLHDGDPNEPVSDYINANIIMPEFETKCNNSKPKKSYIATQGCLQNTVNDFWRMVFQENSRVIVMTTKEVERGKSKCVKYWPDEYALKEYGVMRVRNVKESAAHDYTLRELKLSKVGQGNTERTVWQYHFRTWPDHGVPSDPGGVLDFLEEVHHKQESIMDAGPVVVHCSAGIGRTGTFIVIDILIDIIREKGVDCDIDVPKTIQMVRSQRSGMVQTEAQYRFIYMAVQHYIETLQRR
T8 sequence (P08575 620-1236): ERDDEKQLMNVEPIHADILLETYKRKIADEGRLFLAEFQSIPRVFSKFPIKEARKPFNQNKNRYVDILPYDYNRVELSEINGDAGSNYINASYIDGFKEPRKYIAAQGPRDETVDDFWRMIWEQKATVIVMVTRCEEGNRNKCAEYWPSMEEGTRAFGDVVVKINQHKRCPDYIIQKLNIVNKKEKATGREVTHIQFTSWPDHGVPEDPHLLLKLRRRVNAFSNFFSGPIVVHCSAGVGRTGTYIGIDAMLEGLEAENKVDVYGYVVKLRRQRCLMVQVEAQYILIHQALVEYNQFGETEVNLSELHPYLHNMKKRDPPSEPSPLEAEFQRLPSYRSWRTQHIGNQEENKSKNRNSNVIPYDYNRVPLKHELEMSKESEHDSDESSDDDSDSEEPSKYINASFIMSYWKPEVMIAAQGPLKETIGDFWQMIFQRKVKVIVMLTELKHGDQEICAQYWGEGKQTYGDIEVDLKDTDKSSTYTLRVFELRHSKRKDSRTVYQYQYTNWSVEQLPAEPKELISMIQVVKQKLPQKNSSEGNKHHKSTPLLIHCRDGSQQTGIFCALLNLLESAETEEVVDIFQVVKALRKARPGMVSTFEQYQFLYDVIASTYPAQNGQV
T4 sequence (P35236 22-360): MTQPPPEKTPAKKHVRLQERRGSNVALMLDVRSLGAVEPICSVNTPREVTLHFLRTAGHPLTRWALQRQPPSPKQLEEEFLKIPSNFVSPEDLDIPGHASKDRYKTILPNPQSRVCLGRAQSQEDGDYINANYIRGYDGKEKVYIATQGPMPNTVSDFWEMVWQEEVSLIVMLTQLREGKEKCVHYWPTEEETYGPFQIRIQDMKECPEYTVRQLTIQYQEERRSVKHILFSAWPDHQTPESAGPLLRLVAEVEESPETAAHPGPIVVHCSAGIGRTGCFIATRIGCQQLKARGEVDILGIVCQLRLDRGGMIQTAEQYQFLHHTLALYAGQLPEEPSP
T5 sequence (P29350 245-543): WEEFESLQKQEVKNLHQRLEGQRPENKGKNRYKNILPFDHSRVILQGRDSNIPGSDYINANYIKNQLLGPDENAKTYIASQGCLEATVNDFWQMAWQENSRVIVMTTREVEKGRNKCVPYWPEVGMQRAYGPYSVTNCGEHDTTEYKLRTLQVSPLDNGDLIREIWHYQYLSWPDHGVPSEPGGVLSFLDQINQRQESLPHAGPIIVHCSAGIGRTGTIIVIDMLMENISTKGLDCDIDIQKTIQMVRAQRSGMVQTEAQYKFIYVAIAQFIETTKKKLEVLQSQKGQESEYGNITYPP
T7 sequence (Q9Y6W6 320-467 limits assumed): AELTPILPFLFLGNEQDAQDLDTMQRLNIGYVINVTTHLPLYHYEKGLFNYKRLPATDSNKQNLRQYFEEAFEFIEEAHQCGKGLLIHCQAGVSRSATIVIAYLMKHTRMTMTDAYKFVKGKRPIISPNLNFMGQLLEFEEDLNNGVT
T10 sequence (Q05209 5-304): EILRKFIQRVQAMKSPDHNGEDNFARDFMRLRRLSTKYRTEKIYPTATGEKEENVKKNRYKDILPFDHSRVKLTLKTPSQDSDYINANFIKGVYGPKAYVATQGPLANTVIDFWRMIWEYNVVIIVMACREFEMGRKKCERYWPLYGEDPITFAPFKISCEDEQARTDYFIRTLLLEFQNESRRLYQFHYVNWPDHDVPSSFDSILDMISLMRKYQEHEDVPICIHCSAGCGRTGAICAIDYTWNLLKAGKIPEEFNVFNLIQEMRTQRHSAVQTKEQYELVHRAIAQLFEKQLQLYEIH
T6 sequence (P24666 whole entry, the tested form may be a part): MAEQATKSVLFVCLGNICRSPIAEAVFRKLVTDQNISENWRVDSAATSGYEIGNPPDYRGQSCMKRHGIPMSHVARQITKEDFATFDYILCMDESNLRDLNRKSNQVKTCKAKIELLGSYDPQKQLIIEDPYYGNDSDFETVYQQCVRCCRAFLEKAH
T2 sequence (Q12923 2124-2485): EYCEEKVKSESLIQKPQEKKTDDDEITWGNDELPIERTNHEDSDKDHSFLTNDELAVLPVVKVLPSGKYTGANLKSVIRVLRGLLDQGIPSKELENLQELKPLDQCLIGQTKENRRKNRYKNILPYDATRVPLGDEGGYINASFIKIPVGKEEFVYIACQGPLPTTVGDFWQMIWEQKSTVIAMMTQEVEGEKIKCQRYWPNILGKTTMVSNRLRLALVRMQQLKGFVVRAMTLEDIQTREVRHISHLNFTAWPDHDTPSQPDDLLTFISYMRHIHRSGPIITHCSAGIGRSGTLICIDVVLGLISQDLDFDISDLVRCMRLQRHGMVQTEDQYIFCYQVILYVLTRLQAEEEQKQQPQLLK
T9 sequence (Q9BVJ7 whole entry, the tested form may be a part): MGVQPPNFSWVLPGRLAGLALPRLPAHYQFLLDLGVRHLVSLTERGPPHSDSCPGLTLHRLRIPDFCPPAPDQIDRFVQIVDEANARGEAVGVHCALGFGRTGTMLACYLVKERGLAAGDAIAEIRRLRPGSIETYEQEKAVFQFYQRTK

CC(C)(O)CCOc1ccc2cc(O)c(N3CC(=O)NS3(=O)=O)c(F)c2c1 [Compound 182, 5-(1-Fluoro-3-hydroxy-7-(3-hydroxy-3-methylbutoxy)naphthalen-2-yl)−1,2,5-thiadiazolidin-3-one 1,1-dioxide]
IC50 (PTPα): > 20 µM
IC50 (FAP-1): > 20 µM
IC50 (SHP-2): 19.2 ± 1.7 µM
IC50 (HePTP): > 20 µM
IC50 (SHP-1): 9.1 ± 0.4 µM
IC50 (LMPTP): > 20 µM
IC50 (MKP5): > 20 µM
IC50 (CD45): > 20 µM
IC50 (VHZ): > 20 µM
IC50 (PTP-PEST): > 20 µM
reversibility of inhibition (PTPN2): reversible
